These results are taken from article PMC13303826, “Nicotinonitrile based dual inhibitors of tubulin and topoisomerase II exhibit potent anticancer activity” (Scientific Reports, 2026).

For series [1], the system named is beta-tubulin. The series can be described thus: Inhibition of tubulin polymerization in MCF-7 cells (beta-tubulin SimpleStep ELISA). Type of series: cell-based, human. The following applies: MCF7 cells, concentration not given. From the text:
Beta-tubulin in vitro simple step ELISA® (Enzyme-Linked Immunosorbent Assay) kit is designed for quantitative measurement of beta-tubulin protein in human cell and tissue homogenate extract samples.
The SimpleStep ELISA® employs an affinity tag labeled capture antibody and a reporter conjugated detector antibody which immunocapture the sample analyte in solution. This entire complex (capture antibody/analyte/detector antibody) is in turn immobilized via immunoaffinity of an anti-tag antibody coating the well. To perform the assay, samples or standards are added to the wells, followed by the antibody mix. After incubation, the wells are washed to remove unbound material. TMB development solution is added and during incubation is catalyzed by horseradish peroxidase (HRP), generating blue coloration. This reaction is then stopped by addition of stop solution completing any color change from blue to yellow. Signal is generated proportionally to the amount of bound analyte and the intensity is measured at 450 nm. Optionally, instead of the endpoint reading, development of TMB can be recorded kinetically at 600 nm. The concentration of beta-tubulin protein in the samples is determined by comparing the optical density (OD) of the samples to the standard curve. Each experiment was repeated two times (Table 2).

The subject of series [2] is MDA-MB-231. On the set-up: method as in ref 5, 7 (CA-4), ref 13-15 (VII). The following applies: Fig. 1; 7 (CA-4), ref 13-15 (VII); cited from earlier work.
Series [3] concerns HeLa. The following applies: Fig. 1, cited from earlier work.
Series [4] has as its system colon-26. On the set-up: method as in PMID 24669888, PMID 30111667, PMID 9873694. The following applies: Fig. 1C; cited from earlier work.
Series [5] concerns MCF7 cells. The series can be described thus: LDH release cytotoxicity assay, MCF7. Type of series: cell-based. Particulars: Homo sapiens, 48 h, mean ± SD, read-out: In vitro cytotoxicity IC50 µM ± SD, MCF7. How it is done:
(§1) HepG2 (Human liver carcinoma), HCT116 (human colorectal carcinoma), MCF7 (human breast adenocarcinoma), and the normal human skin fibroblast (BJ-1) cell lines were purchased from the american type culture collection (Rockville, MD, USA) and maintained in RPMI-1640 medium which was supplemented with 10% heat-inactivated FBS, 100U/ml penicillin and 100U/ml streptomycin. The cells were grown at 37 °C in a humidified atmosphere of 5% CO2. All experiments were conducted thrice in triplicate (n = 3). All the values were represented as means ± SD. Significant differences between the means of parameters as well as IC50s were determined by probit analysis using SPSS software program (SPSS Inc., Chicago, IL).
(§2) To determine the effect of each synthesized compound on membrane permeability in HepG2, MCF-7 and HCT116 cancer cell lines as well as BJ-1 normal cell line, a lactate dehydrogenase (LDH) release assay was used[29]–[33]. The cells were seeded in 24-well culture plates at a density of 1 × 10^4 cells/well in 500 µL volume and allowed to grow for 18 h before treatment. After treatment with a series of different concentrations of each compound or DOX (positive control), the plates were incubated for 48 h. Then, the supernatant (40 µL) was transferred to a new 96 well to determine LDH release and 6% triton X-100 (40 µL) was added to the original plate for determination of total LDH. An aliquot of 0.1 M potassium phosphate buffer (100 µL, pH 7.5) containing 4.6 mM pyruvic acid was mixed to the supernatant using repeated pipetting. Then, 0.1 M potassium phosphate buffer (100 µL, pH 7.5) containing 0.4 mg/mL reduced β-NADH was added to the wells. The kinetic changes were read for 1 min using ELISA microplate reader in absorbance at wavelength 340 nm. This procedure was repeated with 40 µL of the total cell lysate to determine total LDH. The percentage of LDH release was determined by dividing the LDH released into the media by the total LDH following cell lysis in the same well. The cell Passage numbers for MCF 7 = P13, Hep G2 = P15, HCT 116 = P 9.
(§3) All experiments were conducted in triplicate (n = 3). All the values were represented as mean ± SD. Significant differences between the means of parameters as well as IC50s were determined by probit analysis using SPSS software program (SPSS Inc., Chicago, IL).
A general note: LDH in the medium is a marker of cell lysis.

Series [6] relates to HepG2 cells. The series can be described thus: LDH release cytotoxicity assay, HepG2. It is filed as cell-based. The following applies: Homo sapiens, 48 h, mean ± SD, read-out: In vitro cytotoxicity IC50 µM ± SD, HepG2. How it is done: as §1, §2, §3
The test system of series [7] is Topo II. The series can be described thus: Inhibition of topoisomerase II in MCF-7 cells (TOP2B sandwich ELISA). It is filed as cell-based, human. Particulars: MCF7 cells, concentration not given. As for the experimental part:
Mouse TOP2B/Topoisomerase II Beta ELISAKit (Sandwich ELISA) is designed for the quantitative measurement of Topo II enzyme.
This assay is based on the sandwich ELISA principle. Each well of the supplied microtiter plate has been pre-coated with a target specific capture antibody. Standards or samples are added to the wells, and the target antigen binds to the capture antibody. Unbound standard or sample is washed away. A biotin-conjugated detection antibody is then added which binds to the captured antigen. Unbound detection antibody is washed away. An avidin-horseradish peroxidase (HRP) conjugate is then added which binds to the biotin. Unbound avidin-HRP conjugate is washed away. A TMB substrate is then added which reacts with the HRP enzyme resulting in color development. A sulfuric acid stop solution is added to terminate color development reaction and then the optical density (OD) of the well is measured at a wavelength of 450 nm ± 2 nm. An OD standard curve is generated using known antigen concentrations; the OD of an unknown sample can then be compared to the standard curve to determine its antigen concentration. Each experiment was repeated two times (Table 3).
A general note: ELISA stands for enzyme-linked immunosorbent assay.

For series [8], the system named is HCT116 cells. The series can be described thus: LDH release cytotoxicity assay, HCT116. Type of series: cell-based. Particulars: Homo sapiens, HCT-116, 48 h, mean ± SD, read-out: In vitro cytotoxicity IC50 µM ± SD, HCT116. How it is done: as §1, §2, §3
The subject of series [9] is MCF7 cells. The series can be described thus: Apoptosis and necrosis analysis by annexin V-FITC/PI staining. The following applies: at IC50 (2.4 µM), 48 h. It is filed as cell-based, human. From the text: Annexin V apoptosis detection kit is used for analyzing apoptosis and necrosis for active compounds 20 and 26 in MCF7 cells using annexin V-FITC/PI dual staining followed by flow cytometry quantification and fluorescence microscopy detection.
Detection is based on the observation that soon after initiating apoptosis, cells translocate the membrane phosphatidylserine (PS) from the inner face of the plasma membrane to the cell surface. Once on the cell surface, PS can be easily detected by staining with a fluorescent conjugate of annexin V, a protein that has a high affinity for PS. Detection can be analyzed by flow cytometry or/and by fluorescence microscopy. The kit can differentiate between apoptosis and necrosis when performing both annexin V-FITC and PI staining. Assay is summarized as first, induce apoptosis by desired method, collect 1–5 × 10^5 cells by centrifugation, resuspend cells in 500 µl of 1× binding buffer, add 5 µl of annexin V-FITC and 5 µl of propidium iodide and finally incubate at room temperature for 5 min in the dark. After that, analyze annexin V-FITC binding by flow cytometry (Ex = 488 nm; Em = 530 nm) using FITC signal detector (usually FL1) and PI staining by the phycoerythrin emission signal detector (usually FL2) then, observe the cells under a fluorescence microscope using a dual filter set for FITC & rhodamine. Cells that have bound annexin V-FITC will show green staining in the plasma membrane. Cells that have lost membrane integrity will show red staining (PI) throughout the nucleus and a halo of green staining (FITC) on the cell surface.

Series [10] has as its system MCF7 cells. The series can be described thus: Propidium iodide flow cytometry cell cycle analysis. It is filed as cell-based, human. The following applies: compound at 2.4 µM. As for the experimental part:
Propidium iodide flow cytometry kit (ab139418) is designed for quantitative DNA content analysis in tissue culture cells, so we performed propidium iodide cell cycle analysis for active compounds 20 and 26 using MCF-7 cell line. Propidium iodide staining of DNA is the classic means of cell cycle analysis. The staining procedure takes less than 1 h of total processing time and cells fixed in ethanol are stable for at least several weeks at 4 °C.
Propidium iodide is a fluorescent molecule that binds nucleic acid with little or no sequence preference. Because propidium iodide binds RNA as well as DNA, RNaseA (ribonuclease A) is included in this kit to digest cellular RNA and thus decrease background RNA staining from the experiment. Since propidium iodide is membrane impermeant, ethanol is used to both fix and permeabilize cells. A flow cytometer is required for quantitative analysis. First, fix MCF-7 cells in 66% ethanol, store at + 4 °C for 2 h to 4 weeks and rehydrate cells in PBS. Finally, stain cells with propidium iodide then add RNase for 30 min. Collect propidium iodide fluorescence intensity on FL2 of a flow cytometer and […] laser excitation. A useful way to display propidium iodide data is on a histogram with the cell count on the y-axis and the propidium iodide fluorescence intensity on the x-axis.

Series [11] relates to BJ1 normal cells. The series can be described thus: LDH release cytotoxicity assay, normal skin fibroblasts BJ1. It is filed as cell-based, human. Particulars: non-tumor BJ1 fibroblasts. How it is done: as §1, §2, §3
Series [12] concerns A549. Set-up: method as in PMID 33465263. The following applies: Fig. 1A; cited from earlier work.
Series [13] relates to MCF-7. On the set-up: method as in ref 8 (podophyllotoxin), ref 13-15 (VIII). Particulars: Fig. 1; ref 8 (podophyllotoxin), ref 13-15 (VIII); cited from earlier work.
For series [14], the system named is HT-29. On the set-up: method as in PMID 25840421, PMID 39533473. Particulars: Fig. 1B; cited from earlier work.
Series [15] has as its system HepG2. On the set-up: method as in PMID 31278032. The following applies: Fig. 1A; cited from earlier work.
The test system of series [16] is HL-60. On the set-up: method as in ref 4, 12 (YCH337), ref 13-15 (VIII). The following applies: Fig. 1; 12 (YCH337), ref 13-15 (VIII); cited from earlier work.
In series [17] the test system is NCI. Set-up: method as in PMID 8392342. The following applies: Fig. 1B; cited from earlier work.
The mark [18] stands for this setting: ref 10 (etoposide), 12 (YCH337).

Like-named read-outs stand apart in the source and are kept apart here.

In general, IC50 refers to the midpoint of a concentration-inhibition curve. In the case of `COc1ccc(/C=C\c2cc(OC)c(OC)c(OC)c2)cc1O` [CA4, Combretastatin A4], the “tubulin polymerization % inhibition” value in [1] was determined as 72.1%. In addition, the IC50 is 2.8 nM in [2] and 1 nM in series [3] (7 (CA-4), ref 13-15 (VII)).

Consider `COc1ccc(-c2nnnn2-c2cc(OC)c(OC)c(OC)c2)cc1N` [IX], for which, in series [4], the IC50 was 7.2 nM.

For `COc1cc(-c2cc(-c3cc(OC)c(OC)c(OC)c3)c(C#N)c(Cl)n2)cc(OC)c1OC` [Compound 20, 2-Chloro-4,6-bis(3,4,5-trimethoxyphenyl)nicotinonitrile], the IC50 in [5] is 2.4 ± 0.1 µM. The IC50 in series [6] came to 6.1 ± 0.5 µM. In series [7], the “Topo II % inhibition” value came out at 70.3%. Further, the “tubulin polymerization % inhibition” value in [1] is reported as 74.7%. The IC50 in [8] amounted to 34.4 ± 3.2 µM. In series [9], the “Apoptosis Early” value amounted to 11.91%, the “Apoptosis Late” value is 22.63%, the “Apoptosis Total” value worked out at 38.41% and the Necrosis turned out to be 3.87%. In series [10], the “%G0-G1” value is on record as 39.69%, the “%G2/M” value came out at 43.3% and the “%S” value stood at 17.01%. Further, in series [11], the “Cytotoxicity / selectivity toward BJ1 normal cells (in words)” value is “good selectivity”.

Turning to `COc1cc([C@@H]2c3cc4c(cc3[C@H](O)[C@H]3COC(=O)[C@H]23)OCO4)cc(OC)c1OC` [Podophyllotoxin], the figures for the 50% inhibitory concentration (IC50) in [12] and in [13] were 1900 nM and 2210 nM, respectively.

As to `COc1ccc(-c2cccc(-c3ccc(OC)cc3OC)n2)cc1` [VII], the IC50 in series [2] is 3.1 nM; in series [3] (7 (CA-4), ref 13-15 (VII)), 3.8 nM.

As for `COC(=O)C1C(c2cc(OC)c(OC)c(OC)c2)c2cc3c(cc2C(n2cc(-c4ccc(F)cc4)nn2)C1C=O)OCO3` (stereo not drawn) [VI], in [14], the concentration for half-maximal inhibition (IC50) is 40 nM.

As to `COc1ccc(-c2cc(-c3cc(OC)c(OC)c(OC)c3)c(C#N)c3nnnn23)cc1` [Compound 26, 5-(4-methoxyphenyl)-7-(3,4,5-trimethoxyphenyl)tetrazolo[1,5-a]pyridine-8-carbonitrile], the IC50 in [5] was 2.4 ± 0.1 µM. Also, in [6], the IC50 was found to be 6.3 ± 0.3 µM. The “Topo II % inhibition” value in [7] is 43.7%. Moreover, in series [1], the “tubulin polymerization % inhibition” value was 75%. Besides, the IC50 in series [8] amounted to 63.4 ± 5.3 µM. For the same compound, in [9], the “Apoptosis Early” value is reported as 7.58%, the “Apoptosis Late” value came to 28.16%, the “Apoptosis Total” value is given as 41.26% and the Necrosis is 5.51%. Moreover, in series [10], the “%G0-G1” value stood at 35.64%, the “%G2/M” value was 50.69% and the “%S” value is given as 13.67%. The “Cytotoxicity / selectivity toward BJ1 normal cells (in words)” value in series [11] was “good selectivity”.

For `COc1cc([C@@H]2c3cc4c(cc3[C@@H](O[C@@H]3O[C@@H]5CO[C@@H](C)O[C@H]5[C@H](O)[C@H]3O)[C@H]3COC(=O)[C@H]23)OCO4)cc(OC)c1O` [Etoposide], the IC50 in series [15] was 10.5 µM; in series [3] (setting [18]), 12200 nM.

Turning to `COc1ccc(-c2cc(-c3cc(OC)c(OC)c(OC)c3)c(C#N)c(=O)[nH]2)cc1` [VIII], the values for the IC50 in series [13] and in series [16] were 180 nM and 470 nM, respectively.

`COc1ccc(O)c(C(=O)c2cnc3[nH]c4ccccc4c3c2)c1` [YCH337]: the IC50 in series [16] was 210 nM; in [3] (setting [18]), 60 nM.

In the case of `COc1cc([C@@H]2c3[nH]c4ccccc4c3C[C@H]3COC(=O)N32)cc(OC)c1O` [Azatoxin (NSC 640737), azatoxin], the IC50 in series [17] is 130 nM.
